# Measured values published in patent US12527773B2, “Flavi-block: a pan-flavivirus inhibitor” (Baden-Württemberg Stiftung GmbH, priority 2020, dated 2026).
# Where “and” joins values, the source holds several entries; their conditions need not be identical. Equal entries are not always repeated. Entries after “also recorded” stand apart in the source; their conditions may differ. Where two headings read alike, the source gives them in different places.
# Assays:
# [1] = test system: ChikV; assay: IC50 in established virological assays (Table 1), ChikV; format: cell-based; details: Chikungunya virus
# [2] = test system: RSV; assay: Plaque assay, RSV infection (A549 cells lysed at 22 h); format: cell-based; details: human respiratory syncytial virus
# Method: Vero and BHK-21 cells were maintained in DMEM media supplemented with 10% heat-inactivated FBS at 37° C. in a humidified incubator supplemented with 5% CO2; A549 cells were maintained in F-12K medium supplemented with 10% heat-inactivated Fetal Bovine Serum (FBS), 2 mM L-glutamine, 50 U/I penicillin, 0.05 mg/l streptomycin. DENV-1-4 strains, cell culture conditions and Gen-Bank accession numbers, as well as details of RSV strains and culture are known in the art. […] Viral titer was subsequently determined by plaque assay (see below).
# Vero cells were seeded into 24-well plates at a density of 2×10^5 cells/well and grown overnight in culture medium at 37° C. with 5% CO2 prior to infection with RSV, KUNV, ZIKV as indicated. BHK-21 cells were used for DENV1-4. The virus inoculum was removed and replaced with semisolid overlays of 0.8% aquacide II (Calbiochem) in DMEM+2% FBS, and the mixture was incubated at 37° C. with 5% CO2. After 3-5 days, the cells were fixed with neutral buffered formalin (Sigma) for 3 h at room temperature, rinsed with tap water, and stained with 1% crystal violet for 10 min. The stain was removed by rinsing the cells with tap water, and the viral plaques were counted visually. Dose-response curves were plotted from the plaque number versus the log of the concentration of the test compounds. […]
# [3] = Pharmacokinetic study in Balb/c mice, intravenous administration; format: in vivo; set-up: Kel (Lambda_z): unit not given here; details: for Plasma concentration, Group A-D: single animals; for half-life: iv
# Method: Study design, animal selection, handling and treatment were all in accordance with the study protocols and institutional animal care and use guidelines. Male Balb/c mice (9-10 weeks old, body weight 22.3 to 38.1 g and average body weight across all groups 31.4 g, SD=3.20 g) were used in this study. The animals were randomly assigned to the treatment groups before the pharmacokinetic study; all animals were fasted for 4 h before dosing. Six time points for PO (15, 30, 60, 120, 240 and 360 min) and IV (5, 15, 30, 60, 120 and 240 min) routes were used in this pharmacokinetic study. Each of the PO and IV time point treatment groups included 4 animals. There was also control group of 2 animals. Dosing was done according to the treatment schedules outlined in Table 3. Mice were injected IV with 2,2,2-tribromoethanol at the dose of 150 mg/kg prior to taking blood. Blood collection was performed from the orbital sinus in microtainers containing K2EDTA. Animals were sacrificed by cervical dislocation after blood samples collection. All samples were immediately prepared, flash-frozen and stored at −70° C. until subsequent bioanalysis.
# Samples Processing Plasma samples ([…]) were mixed with […] of IS solution. After mixing by pipetting and centrifuging for 4 min at 6,000 rpm, […] of each supernatant was injected into LC-MS/MS system. Solution of compound IS-02-03 (200 ng/ml in acetonitrile-methanol mixture, 1:1, v/v) was used as internal standard (IS) for quantification of C10 in plasma samples. Samples Analysis The concentrations of C10 were determined using high performance liquid chromatography/tandem mass spectrometry (HPLC-MS/MS). Shimadzu H PLC system comprised of 2 isocratic pumps LC-10Advp, an autosampler SIL-HTc, a sub-controller FCV-14AH and a degasser DGU-14A. Mass spectrometric analysis was performed using an API 3000 (triple-quadrupole) instrument from AB Sciex (Canada) with an electro-spray (ESI) interface. The data acquisition and system control was performed using Analyst 1.5.2 software from AB Sciex. HPLC-MS/MS Conditions
# The pharmacokinetic data analysis was performed using non-compartmental, bolus injection or extravascular input analysis models in WinNonlin 5.2 (PharSight). Data below LLOQ were presented as missing to improve validity of T1/2 calculations. No outlier data points were removed from calculations. The bioavailability for the peroral route was calculated as: […]
# [4] = in vitro; details: for % Remain. Mean: mouse plasma, 1 μM, 37° C.
# Method: Plasma stability is defined as the percentage of parent compound remaining in plasma over the time.
# Incubations were carried out in 5 aliquots of 70 μL each (one for each time point), in duplicates. Test compounds (1 μM, final DMSO concentration 1%) were incubated at 37° C. with shaking at 100 rpm. Five time points over 120 minutes have been analyzed. The reactions were stopped by adding 420 μL of acetonitrile-water mixture (90:10) with subsequent plasma proteins sedimentation by centrifuging at 5500 rpm for 5 minutes. Supernatants were analyzed by the HPLC system coupled with tandem mass spectrometer. The percentage of the test compounds remaining after incubation in plasma and their half-lives (T1/2) were calculated.
# [5] = target: HCV core protein (Hepatitis C virus genotype 1a, UniProt P27958); assay: Interaction with and crosslinking of HCV core protein (Western blot); details: purified core protein
# [6] = male, Balb/c, mouse, plasma, IV 5 mg/kg
# Sequence of HCV core protein (P27958 1-117): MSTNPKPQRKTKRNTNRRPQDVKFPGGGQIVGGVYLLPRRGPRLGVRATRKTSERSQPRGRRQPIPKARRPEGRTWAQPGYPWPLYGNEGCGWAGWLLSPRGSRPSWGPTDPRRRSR
structure (smiles),measurement,setting,value
"CCN1/C(=C\C=C\c2sc3cc(NC(C)=O)ccc3[n+]2CC)Sc2cc(NC(C)=O)ccc21.[I-] [C10, 6-acetamido-2-((1E,3E)-3-(6-acetamido-3-ethylbenzo[d]thiazol-2(3H)-ylidene)prop-1-en-1-yl)-3-ethylbenzo[d]thiazol-3-ium iodide]",IC50,[1],5600 nM
same,EC50,"[2]; c.t., read-out: EC50 from plaque assays",890 nM
same,EC50,"[2]; co-added with virus (text, Tables 2A and 2B), read-out: EC50",~800 nM
same,Kel (Lambda_z),[3]; IV 5 mg/kg,0.00581
same,Vd (Vz_obs),[3]; IV 5 mg/kg,14.1 L/kg
same,"Plasma concentration, Mean","[3]; IV 5 mg/kg, 5 min",2690 ng(ml)
same,"Plasma concentration, Group A-D","[3]; IV 5 mg/kg, 5 min, 5 mg/kg",2780 ng(ml) and 2310 ng(ml) and 2606 ng(ml) and 3063 ng(ml)
same,"Plasma concentration, Mean","[3]; IV 5 mg/kg, 15 min",311 ng(ml)
same,"Plasma concentration, Group A-D","[3]; IV 5 mg/kg, 15 min, 5 mg/kg",185 ng(ml) and 316 ng(ml) and 521 ng(ml) and 221 ng(ml)
same,"Plasma concentration, Mean","[3]; IV 5 mg/kg, 30 min",154 ng(ml)
same,"Plasma concentration, Group A-D","[3]; IV 5 mg/kg, 30 min, 5 mg/kg",109 ng(ml) and 152 ng(ml) and 189 ng(ml) and 164 ng(ml)
same,"Plasma concentration, Mean","[3]; IV 5 mg/kg, 60 min",109 ng(ml)
same,"Plasma concentration, Group A-D","[3]; IV 5 mg/kg, 60 min, 5 mg/kg",93 ng(ml) and 160 ng(ml) and 89 ng(ml) and 92 ng(ml)
same,"Plasma concentration, Mean","[3]; IV 5 mg/kg, 120 min",60 ng(ml)
same,"Plasma concentration, Group A-D","[3]; IV 5 mg/kg, 120 min, 5 mg/kg",69 ng(ml) and 44 ng(ml) and 59 ng(ml) and 67 ng(ml)
same,"Plasma concentration, Mean","[3]; IV 5 mg/kg, 240 min",43 ng(ml)
same,"Plasma concentration, Group A-D","[3]; IV 5 mg/kg, 240 min, 5 mg/kg",47 ng(ml) and 43 ng(ml) (2×) and 40 ng(ml)
same,tolerability in mice,"[3]; IV, 5 mg/kg",tolerated; also recorded: not toxic at high concentrations
same,Vd,"[3]; male, Balb/c, mouse, plasma, 5 mg/kg, calculated, IV, read-out: volume of distribution",14.1 L/kg
same,half-life,"[3]; male, Balb/c, mouse, plasma, 5 mg/kg, IV 5 mg/kg, read-out: T1/2 (HL_Lambda_z)",1.98 h
same,half-life,"[3]; male, Balb/c, mouse, plasma, 5 mg/kg, mice, IV administration, read-out: half-life in plasma/serum (converted)",~2 h
same,Cmax,[3]; [6],2690 ng/mL
same,Tmax,[3]; [6],5 min
same,AUC(0-t),"[3]; male, Balb/c, mouse, plasma, IV 5 mg/kg, read-out: AUC0→t = 240 min (AUClast) (converted)",892 ng·h/mL
same,AUC(0-inf),"[3]; male, Balb/c, mouse, plasma, IV 5 mg/kg, read-out: AUC0→∞ (AUCINF_obs) (converted)",1020 ng·h/mL
same,clearance,"[3]; male, Balb/c, mouse, plasma, IV 5 mg/kg, read-out: CL (Cl_obs)",82.1 mL/min/kg
same,MRT inf,"[3]; male, Balb/c, mouse, plasma, IV 5 mg/kg, read-out: MRT (MRTinf) (converted)",1.36 h
same,MRT last,"[3]; male, Balb/c, mouse, plasma, IV 5 mg/kg, read-out: MRT (MRTlast) (converted)",0.59 h
same,% Remain. Mean,[4]; 0 min,100%
same,% Remain. Mean,[4]; 20 min,93%
same,% Remain. Mean,[4]; 40 min,90%
same,% Remain. Mean,[4]; 60 min,82%
same,% Remain. Mean,[4]; 120 min,57%
same,half-life at 1 μM,"[4]; mouse, plasma",3.68 h
same,stability in mouse plasma,"[4]; mouse, plasma",good stability
same,cross-linking / oligomerization of HCV core protein,[5],leads to cross-linking of the core protein; also recorded: triggers the oligomerization of HCV core protein
